From patent US8829011B2 (Janssen Pharmaceutica NV, priority 2008, dated 2014)
Counter-ions that a name gives are not always drawn.

Tests used:
[1] = biological target: T1, human recombinant 5-HT2A receptor (Homo sapiens, UniProt P28223); experiment: Affinity for 5-HT2A receptor binding sites (competitive radioligand binding, [3H]ketanserin); conditions: membranes of NIH3T3 with h5-HT2A, * = tested as hydrochloride salt
T1 construct: expressed in transfected cells; host or cells: NIH3T3
Method: (§1) Stock drug solutions (10 mM) were prepared in DMSO (the final assay concentration of DMSO not exceeding 0.4%). Drug dilutions were prepared in assay buffer.
(§2) Sigmoidal inhibition curves were generated and fitted by nonlinear regression analysis (GraphPad Prism).
(§3) 2. Affinity for 5HT2 Receptor Binding Sites
(§4) Receptor binding was performed using the human recombinant 5-HT2A (GB: X57830), 5-HT2B (GB: Z36748) and 5-HT2C (GB: M81778) receptors. The affinity of the compounds for the 3 different human 5-HT2 receptor subtypes was evaluated by competitive radioligand binding assays using [^3H]ketanserin (h5-HT2A) or [^3H]mesulergine (h5-HT2B and h5-HT2C). The assays were performed on membranes prepared from NIH3T3 stably transfected with h5-HT2A or CHO stably transfected with h5-HT2B and h5-HT2C.

[2] = biological target: T2, human recombinant 5-HT2C receptor (Homo sapiens, UniProt P28335); experiment: Affinity for 5-HT2C receptor binding sites (competitive radioligand binding, [3H]mesulergine); conditions: membranes of CHO with h5-HT2C, * = tested as hydrochloride salt
T2 construct: expressed in transfected cells; host or cells: CHO
T2 sequence (P28335 33-458): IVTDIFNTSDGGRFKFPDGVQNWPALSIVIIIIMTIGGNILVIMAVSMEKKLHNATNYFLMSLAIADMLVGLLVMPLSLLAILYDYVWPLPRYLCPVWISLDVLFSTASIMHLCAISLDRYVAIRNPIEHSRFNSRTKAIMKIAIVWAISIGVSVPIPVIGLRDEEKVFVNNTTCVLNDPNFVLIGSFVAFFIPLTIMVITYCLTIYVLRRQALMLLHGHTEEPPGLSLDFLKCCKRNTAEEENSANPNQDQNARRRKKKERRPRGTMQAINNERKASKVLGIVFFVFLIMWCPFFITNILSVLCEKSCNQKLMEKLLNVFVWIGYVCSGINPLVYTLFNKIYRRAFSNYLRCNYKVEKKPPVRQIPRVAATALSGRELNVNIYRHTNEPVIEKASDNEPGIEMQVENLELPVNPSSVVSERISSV
Method: as §1, §2, §3, §4

rat 5-HT7a receptor = biological target: T3, rat 5-HT7a receptor (Rattus norvegicus, UniProt P32305); experiment: Affinity for 5-HT7 receptor binding sites (competition radioligand binding, [3H]5-CT); conditions: membranes of HEK-293 cells with rat 5-HT7a; 1 nM [3H]5-CT; * = tested as hydrochloride salt
T3 construct: expressed in transfected cells; host or cells: HEK-293
T3 sequence (P32305 whole entry): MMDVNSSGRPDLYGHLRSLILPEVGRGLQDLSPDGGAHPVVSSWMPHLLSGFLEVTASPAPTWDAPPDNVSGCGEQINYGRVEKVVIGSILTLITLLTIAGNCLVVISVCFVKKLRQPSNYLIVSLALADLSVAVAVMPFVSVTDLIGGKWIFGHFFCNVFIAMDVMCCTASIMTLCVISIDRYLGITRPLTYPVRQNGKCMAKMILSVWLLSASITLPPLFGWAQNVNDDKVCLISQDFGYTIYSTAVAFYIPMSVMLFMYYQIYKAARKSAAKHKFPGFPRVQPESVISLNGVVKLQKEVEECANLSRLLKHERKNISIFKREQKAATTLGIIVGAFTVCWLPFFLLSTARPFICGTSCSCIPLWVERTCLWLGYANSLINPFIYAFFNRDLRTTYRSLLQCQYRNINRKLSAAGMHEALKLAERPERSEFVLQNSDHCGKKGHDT
Method: as §1, §2
1. Affinity for 5-HT7 Receptor Binding Sites
The affinity of the compounds described in this invention for the 5-HT7 receptor binding site was evaluated by single competition radioligand binding assay. The assay was performed on membranes prepared from HEK-293 cells that had been subjected to stable transfection with the rat 5-HT7a receptor (GB: NM022938). Cells were scraped from the culture plates, suspended in Tris-HCl 50 mM pH 7.5 and collected through centrifugation (1000 rpm for 5 min). The cell pellets were homogenized (Polytron, 15 s, setting 5) in 50 mM Tris-HCl (pH 7.5), 5 mM EDTA. Following centrifugation (15,000 rpm for 25 min), membranes (135 μg protein/mL) were resuspended in the same buffer and incubated for 60 min at RT with 1 nM [^3H]5-CT in the presence of increasing concentration of test compounds. Nonspecific binding was defined in the presence of 10 μM 5-HT. Incubation was stopped by rapid filtration using the cell harvester (Packard). Radioactivity was counted in a TopCount-NXT (Packard). Experiments were conducted in triplicate.

[3] = biological target: T4, human recombinant 5-HT2B receptor (Homo sapiens, UniProt P41595); experiment: Affinity for 5-HT2B receptor binding sites (competitive radioligand binding, [3H]mesulergine); conditions: membranes of CHO with h5-HT2B, * = tested as hydrochloride salt
T4 construct: expressed in transfected cells; host or cells: CHO
T4 sequence (P41595 whole entry): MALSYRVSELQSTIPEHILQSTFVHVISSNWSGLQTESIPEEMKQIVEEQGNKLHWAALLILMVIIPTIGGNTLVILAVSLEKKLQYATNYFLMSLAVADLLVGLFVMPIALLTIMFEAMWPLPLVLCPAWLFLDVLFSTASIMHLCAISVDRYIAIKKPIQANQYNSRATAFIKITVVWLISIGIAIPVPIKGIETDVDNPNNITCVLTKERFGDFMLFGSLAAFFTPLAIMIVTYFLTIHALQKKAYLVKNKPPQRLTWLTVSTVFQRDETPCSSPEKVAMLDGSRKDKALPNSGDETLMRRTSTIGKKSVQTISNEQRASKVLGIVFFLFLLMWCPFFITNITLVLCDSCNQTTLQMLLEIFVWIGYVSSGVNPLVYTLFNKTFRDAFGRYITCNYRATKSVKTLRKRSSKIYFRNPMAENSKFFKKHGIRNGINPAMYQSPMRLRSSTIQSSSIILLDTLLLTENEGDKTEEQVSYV
Method: as §1, §2, §3, §4

[4] = biological target: T5, human recombinant 5-HT6 receptor (Homo sapiens, UniProt P50406); experiment: Affinity for 5-HT6 receptor binding sites (competitive radioligand binding, [3H]LSD); conditions: membranes of HEK-293 with h5-HT6, * = tested as hydrochloride salt
T5 construct: expressed in transfected cells; host or cells: HEK-293
T5 sequence (P50406 whole entry): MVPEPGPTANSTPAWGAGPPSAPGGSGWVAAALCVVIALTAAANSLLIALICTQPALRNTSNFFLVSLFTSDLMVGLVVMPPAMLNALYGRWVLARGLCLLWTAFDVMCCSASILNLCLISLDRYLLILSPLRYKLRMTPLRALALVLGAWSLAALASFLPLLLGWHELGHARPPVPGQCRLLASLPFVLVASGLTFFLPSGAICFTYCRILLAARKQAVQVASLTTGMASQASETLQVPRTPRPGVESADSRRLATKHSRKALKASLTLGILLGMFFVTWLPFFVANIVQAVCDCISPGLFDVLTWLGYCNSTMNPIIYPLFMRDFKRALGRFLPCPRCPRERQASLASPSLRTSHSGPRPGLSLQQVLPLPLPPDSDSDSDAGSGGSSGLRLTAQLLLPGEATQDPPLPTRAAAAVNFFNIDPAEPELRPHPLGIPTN
Method: as §1, §2
3. Affinity for 5-HT6 Receptor Binding Sites
Receptor binding was performed using the human recombinant 5-HT6 (GB: BC0794995) receptor. The affinity of the compounds for the human 5-HT6 receptor was evaluated by competitive radioligand binding assays using [^3H]LSD. The assays were performed on membranes prepared from HEK-293 stably transfected with h5-HT6. Non-specific binding was estimated in the presence of 1 μM clozapine.

T1 sequence (P28223 whole entry): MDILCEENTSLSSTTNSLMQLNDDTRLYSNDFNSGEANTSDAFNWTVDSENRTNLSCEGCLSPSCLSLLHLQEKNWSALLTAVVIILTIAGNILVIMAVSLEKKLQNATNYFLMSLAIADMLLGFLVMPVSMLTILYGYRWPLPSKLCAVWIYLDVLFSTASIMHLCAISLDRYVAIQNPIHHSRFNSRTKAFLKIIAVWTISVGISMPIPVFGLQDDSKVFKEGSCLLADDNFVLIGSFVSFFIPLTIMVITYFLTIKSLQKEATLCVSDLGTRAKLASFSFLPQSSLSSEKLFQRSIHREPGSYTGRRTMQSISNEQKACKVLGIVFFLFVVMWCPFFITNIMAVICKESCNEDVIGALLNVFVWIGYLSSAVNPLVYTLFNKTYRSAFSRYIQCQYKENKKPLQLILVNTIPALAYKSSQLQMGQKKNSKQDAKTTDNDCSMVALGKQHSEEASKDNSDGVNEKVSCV

Ki [4] [nM]	SMILES	Ki [1] [nM]	Ki [2] [nM]	Ki (rat 5-HT7a receptor) [nM]	Ki [3] [nM]
	CCN(CC)c1nc2c(c(-c3ccc(F)cc3)n1)CCN(Cc1ccccc1)C2 [Example 23, [7-Benzyl-4-(4-fluoro-phenyl)-5,6,7,8-tetrahydro-pyrido[3,4-d]pyrimidin-2-yl]-diethyl-amine]	60	2800	620	350
220	CCN(CC)c1nc2c(c(-c3ccc(C#N)cc3)n1)CCNCC2 [Example 14, 4-(2-Diethylamino-6,7,8,9-tetrahydro-5H-pyrimido[4,5-d]azepin-4-yl)-benzonitrile hydrochloride]	40	130	63	5
	Fc1ccc(-c2nc(N3CCCCCC3)nc3c2CCNC3)cc1 [Example 32, 2-Azepan-1-yl-4-(4-fluoro-phenyl)-5,6,7,8-tetrahydro-pyrido[3,4-d]pyrimidine]	9	110	270	30
	CCN(CC)c1nc2c(c(-c3ccc(OC)cc3)n1)CNCCC2 [Example 17, Diethyl-[4-(4-methoxy-phenyl)-6,7,8,9-tetrahydro-5H-1,3,6-triaza-benzocyclohepten-2-yl]-amine]	900	2500	> 10000	630
	Clc1ccc(-c2nc(NCc3ccccc3)nc3c2CCNCC3)cc1 [Example 56, Benzyl-[4-(4-chloro-phenyl)-6,7,8,9-tetrahydro-5H-pyrimido[4,5-d]azepin-2-yl]-amine]	1.4	40	9000	45
	Cc1ccc(-c2nc(N3CCCCC3)nc3c2CNCCC3)cc1 [Example 19, 2-Piperidin-1-yl-4-p-tolyl-6,7,8,9-tetrahydro-5H-1,3,6-triaza-benzocycloheptene]	1500	3160	> 10000	1000
1480	CCN(CC)c1nc2c(c(-c3ccc(Cl)cc3)n1)CNCCC2 [Example 59, [4-(4-Chloro-phenyl)-6,7,8,9-tetrahydro-5H-1,3,6-triaza-benzocyclohepten-2-yl]-diethyl-amine hydrochloride]			> 10000	
	COc1ccc(-c2nc(N3CCCCCC3)nc3c2CCNC3)cc1 [Example 36, 2-Azepan-1-yl-4-(4-methoxy-phenyl)-5,6,7,8-tetrahydro-pyrido[3,4-d]pyrimidine]	160	320	210	100
	COc1ccc(-c2nc(N3CCCCCC3)nc3c2CCN(Cc2ccccc2)C3)cc1 [Example 35, 2-Azepan-1-yl-7-benzyl-4-(4-methoxy-phenyl)-5,6,7,8-tetrahydro-pyrido[3,4-d]pyrimidine]	> 10000	> 10000	> 10000	700
	Fc1ccc(-c2nc(N3CCCCCC3)nc3c2CCN(Cc2ccccc2)C3)cc1 [Example 31, 2-Azepan-1-yl-7-benzyl-4-(4-fluoro-phenyl)-5,6,7,8-tetrahydro-pyrido[3,4-d]pyrimidine]	230	3200	> 10000	1600
	CCN(CC)c1nc2c(c(-c3ccc(C)cc3)n1)CNCCC2 [Example 16, Diethyl-(4-p-tolyl-6,7,8,9-tetrahydro-5H-1,3,6-triaza-benzocyclohepten-2-yl)-amine]	50	630	500	320
	CC1CCCN1c1nc2c(c(-c3ccc(Cl)cc3)n1)CCNCC2 (stereo not shown) [Example 54, 4-(4-Chloro-phenyl)-2-(2-methyl-pyrrolidin-1-yl)-6,7,8,9-tetrahydro-5H-pyrimido[4,5-d]azepine]	30	89	370	5
	Cc1ccc(-c2nc(N3CCCCCC3)nc3c2CCNC3)cc1 [Example 34, 2-Azepan-1-yl-4-p-tolyl-5,6,7,8-tetrahydro-pyrido[3,4-d]pyrimidine]	18	270	90	40
	CCN(CC)c1nc2c(c(-c3ccc(Cl)cc3)n1)CNCC2 [Example 46, [4-(4-Chloro-phenyl)-5,6,7,8-tetrahydro-pyrido[4,3-d]pyrimidin-2-yl]-diethyl-amine hydrochloride]	30	250	100	200
	N#Cc1ccc(-c2nc(N3CCCCC3)nc3c2CNCCC3)cc1 [Example 22, 4-(2-Piperidin-1-yl-6,7,8,9-tetrahydro-5H-1,3,6-triaza-benzocyclohepten-4-yl)-benzonitrile hydrochloride]	> 10000	> 10000	> 10000	2510
	Cc1ccc(-c2nc(N3CCCC3)nc3c2CNCC3)cc1 [Example 47, 2-Pyrrolidin-1-yl-4-p-tolyl-5,6,7,8-tetrahydro-pyrido[4,3-d]pyrimidine]	120	1600	> 10000	500
	CCN(CC)c1nc2c(c(-c3ccc(C#N)cc3)n1)CCN(Cc1ccccc1)C2 [Example 29, 4-(7-Benzyl-2-diethylamino-5,6,7,8-tetrahydro-pyrido[3,4-d]pyrimidin-4-yl)-benzonitrile]	650	> 10000	> 10000	1100
	CCN(CC)c1nc2c(c(-c3ccc(C)cc3)n1)CCN(Cc1ccccc1)C2 [Example 25, (7-Benzyl-4-p-tolyl-5,6,7,8-tetrahydro-pyrido[3,4-d]pyrimidin-2-yl)-diethyl-amine]	190	> 10000	> 10000	620
	Fc1ccc(-c2nc(N3CCCC3)nc3c2CNCC3)cc1 [Example 41, 4-(4-Fluoro-phenyl)-2-pyrrolidin-1-yl-5,6,7,8-tetrahydro-pyrido[4,3-d]pyrimidine hydrochloride]	25	940	> 10000	750
	CCN(C)c1nc2c(c(-c3ccc(F)cc3)n1)CNCC2 [Example 44, Ethyl-[4-(4-fluoro-phenyl)-5,6,7,8-tetrahydro-pyrido[4,3-d]pyrimidin-2-yl]-methyl-amine hydrochloride]	9.5	300	2000	180
	N#Cc1ccc(-c2nc(N3CCCCCC3)nc3c2CCN(Cc2ccccc2)C3)cc1 [Example 37, 4-(2-Azepan-1-yl-7-benzyl-5,6,7,8-tetrahydro-pyrido[3,4-d]pyrimidin-4-yl)-benzonitrile]	2400	> 10000	> 10000	1300
	Cc1ccc(-c2nc(N3CCCCCC3)nc3c2CCN(Cc2ccccc2)C3)cc1 [Example 33, 2-Azepan-1-yl-7-benzyl-4-p-tolyl-5,6,7,8-tetrahydro-pyrido[3,4-d]pyrimidine]	540	3200	> 10000	800
	Fc1ccc(-c2nc(N3CCCCC3)nc3c2CNCCC3)cc1 [Example 20, 4-(4-Fluoro-phenyl)-2-piperidin-1-yl-6,7,8,9-tetrahydro-5H-1,3,6-triaza-benzocycloheptene hydrochloride]	300	6310	> 10000	790
